According to patent publication US9096544B2, “Therapeutic compounds” (Wayne State University, priority 2009, dated 2015):

Assays:
TF(v-SRC) cells = assay: Test B: apoptosis of TF(v-SRC) cells (acridine orange/ethidium bromide, nuclear fragmentation); type: cell-based; conditions: nuclear fragmentation, FIG. 2A/B (96 h), read-out: ED50 of apoptosis induction
Protocol: FIG. 2 illustrates apoptosis induction in FFMA-AML and TF(v-SRC) cells by 3-Cl-AHPC and compound 16. Cells were seeded at 1×10^4 cells/ml, grown for 24 h and then exposed to 1 μM compound 16 or 3-Cl-AHPC A) at various concentrations of the compound for 96 h and B) for increasing times of exposure. C) Induction of apoptosis by 3-Cl-AHPC, all-trans-retinoic acid, 9-cis-retinoic acid and TTNPB in FFMA-AML and TF(v-SRC) cells. The percentage of apoptotic cells was determined using acridine orange and ethidium bromide staining to determine nuclear fragmentation as described in the general biochemical and pharmacological materials and methods. The error bars represent the mean of three separate determinations +/− the standard deviation (SD).
FFMA-AML cells were obtained from a patient with a diagnosis of AML as indicated by the immunophenotyping described in Table 1. This patient was refractory to the chemotherapy regimens consisting of cytosine arabinoside given with daunomycin as well as high-dose cytosine arabinoside. Peripheral blood samples were obtained from the patient utilizing a Wayne State University Institutional Review Board approved protocol and the leukemic blasts were isolated utilizing Ficoll hypaque. The isolated leukemic cells (representing >99% of the cells) were subsequently cultured in RPMI 1640 supplemented with 10% heat-inactivated fetal bovine serum (FBS) and growth factors interleukin 3 (IL-3), granulocyte-colony stimulating factor (G-CSF), granulocyte/macrophage colony-stimulating factor (GM-CSF), and stem cell factor (SCF) as we have previously reported, and then the cells were maintained in 10% FBS and gentamycin (Zhang Y. et al., Blood, 2003; […]:3743-3752). The TF(v-SRC) leukemia cells have been previously described (Black J. H. et al., Leukemia. 2003; 17:155-159). TF(v-SRC) cells were grown in RPMI 1640 supplemented with 10% heat inactivated FBS.
(§1) Apoptosis of cells was determined by (1) acridine orange and ethidium bromide-staining to assess cells with nuclear fragmentation and chromatin condensation as previously described (Farhana L. et al., Cancer Res. 2006; 65:4909-4917) and (2) flow cytometry assessing Annexin V-FITC binding together with propidium iodide staining (Annexin V-FITC apoptosis Detection kit 1, BD Biosciences, San Diego, Calif.). Data acquisition was done on a FACS Calibur flow cytometer (BD) and analyzed with CellQuest software.
Cells were grown in the presence and absence of increasing concentrations of either 3-Cl-AHPC or compound 16 and for varying periods of time. There was a progressive increase in 3-Cl-AHPC- and compound 16-mediated apoptosis in both FFMA-AML and TF(v-SRC) cells with time and with increasing concentrations of the compounds. […] We therefore tested the sensitivity of FFMA-AML and TF(v-SRC) cells to apoptosis induction by tRA, 9-cis RA, and TTNPB (FIG. 2C).

FFMA-AML cells = assay: Annexin V-FITC binding by flow cytometry, FFMA-AML cells; type: cell-based, human; conditions: 1 μM, varying times
Protocol: FIG. 3 illustrates the induction of apoptosis and cell death as assessed using Annexin V-FITC binding together with propidium iodide (PI) staining. FFMA-AML and TF(vSRC) cells were exposed to 1 μM 3-Cl-AHPC or compound 16. A) Apoptosis in FFMA-AML and TF(vSRC) cells following 24 and 48 h ARR exposure, respectively. The plots show the distribution of classes of fluorescence intensity versus cell number. The bottom left quadrant represents live cells (both annexin V-FITC and PI negative); the bottom right quadrant represents early apoptotic cells (annexin V-FITC positive but PI negative); and the top right quadrant represents late apoptotic cells (both annexin V-FITC and PI positive). B) Percentage of early apopotic Annexin V-positive cells at the indicated times. […] (p values of <0.05, <0.01 and <0.001 respectively, as determined by the t test).
as §1, with “software. […]” for “software.”

Capan-2 cells = assay: Test I: apoptosis of Capan-2 pancreatic cancer cells (Annexin V-FITC/PI); type: cell-based; conditions: 1 μM, 48 h
Protocol: Pancreatic cancer cell lines (COLO357, PANC-1, Capan-2, AsPc-1 cells and MiaPaCa-2 cells obtained from American Type Culture Collection; ATCC, Rockville, Md.) were treated with 1 μM 3-Cl-AHPC and compound 16 for various times. Apoptosis in cells were analyzed by flow cytometry using Annexin V-FITC binding together with propidium iodide (PI) staining (Annexin V-FITC apoptosis Detection Kit 1, BD Biosciences, San Diego, Calif.). Data acquisition was done on a FACS Calibur flow cytometer (BD) and analyzed with CellQuest software (BD Biosciences). 3-Cl-AHPC and compound 16 mediated inhibition of cell growth were determined by 3-(4,5-dimethylthiazol-2-yl)-2,5-diphenyltetrazolium bromide (MTT) assay. The cells were seeded on 96-well plates at a density of 4×10^4 cells/well in a volume of 200 μl culture medium. 1 μM AHP3 and 3-Cl-AHPC in DMSO (final concentration 0.1%) were added to the cells for various times. […] After discarding the medium, MTT precipitates were solubilized with 200 μl DMSO and the plates read on a BioTeK Synergy HT (BioTeK Instrument Inc., Vermont) at an absorbance 570 nm. […] The spheroids were stained with acridine orange/ethidium bromide staining and immediately visualized and photographed with fluorescence microscope (OLYMPUS CKX41). […] Then spheroids were visualized and photographed with a fluorescence microscope.

In the case of O=C(O)C=Cc1ccc(-c2ccc(O)c(C34CC5CC(CC(C5)C3)C4)c2)c(Cl)c1 [Compound 3-Cl-AHPC, 4-[3-(1-adamantyl)-4-hydroxyphenyl]-3-chlorocinnamic acid, reference compound], the EC50 (TF(v-SRC) cells) is reported as 750 nM, the “annexin V-FITC-positive cells” value (FFMA-AML cells) is reported as “progressive increase in annexin V-FITC-positive cells with time” and the “cells in which induction of apoptosis was noted” value (Capan-2 cells) is reported as 50%.

O=C(O)/C=C/c1cnc(-c2ccc(O)c(C34CC5CC(CC(C5)C3)C4)c2)nc1 [Compound 16, (E)-3-[2-(3-(1-Adamantyl)-4-hydroxyphenyl)-5-pyrimidinyl]-2-propenoic acid] was tested, and the EC50 (TF(v-SRC) cells) was 750 nM, the “annexin V-FITC-positive cells” value (FFMA-AML cells) was “progressive increase in annexin V-FITC-positive cells with time” and the “cells in which induction of apoptosis was noted” value (Capan-2 cells) was 50%.
